In patent US4333926A, “Steryl-β-D-glucoside pharmaceutical compositions and use” (Nippon Shinyaku Co., Ltd., priority 1979, dated 1982):
Like-named read-outs stand apart in the source and are kept apart here.

Columns and labels:
[1] = test system: pulmonary hemorrhage under reduced pressure; test: Vascular stabilization: pulmonary hemorrhage in mice under reduced pressure (Table 6; vascular stability summary table); format: in vivo; settings: for ED50: Mus musculus, iv, read-out: Vascular stability ED50; for ED50 (pulmonary hemorrhage): reduced pressure 50±0.5 mm Hg/15 sec
Procedure: For example, the following tables summarize the vascular stabilizing effect (described in detail below).
The surprising vascular stabilizing effect of these compounds can also be shown in a number of recognized models of which the following are typical.
The degree of pulmonary homorrhage in mice under reduced pressure of 50±0.5 mm Hg/15 sec was assessed by the scoring method, the ED50 of each compound being calculated from the ratio of inhibiting rate for treated animals over that for the control group according to the method of G. J. Mojovski et al., J. Pharmacol. Exp. Therap. 80, 1, 1944.

[2] = test system: hemorrhages induced by vesical mucosal resection; test: Hemorrhage induced by vesical mucosal resection (Dermaut et al.); format: in vivo, dogs; settings: 5 mg/kg i.v.
[3] = test system: increased vascular permeability induced by hyaluronidase; test: Increased vascular permeability induced by hyaluronidase, rabbit; format: in vivo; settings: 100 mg/kg, i.p.
Procedure: (§1) The inhibitory effect on increased vascular permeability caused by intracutaneous administration of histamine, hyaluronidase, lecithinase A and formalin is also correlated to vascular stabilization. This parameter was measured by the dye leakage method with the inhibitory effect of each test drug expressed in terms of inhibiting rate over the control according to the methods of Benditt et al., Proc. Soc. Biol. Med. 75 782 1950 and Orary et al., J. Exp. Med. 117, 951, 1963.

endotoxin shock = test: Endotoxin shock mortality (48 hours); format: in vivo
Procedure: The mortality rate during the period of 48 hours following intravenous administration of 80% lethal dose (8 mg/kg) of endotoxin is observed with the effect of each compound being expressed as the ED50 (see Tanabe et al., Pharmacometrics Vol. 7 591, 1973).

[4] = test system: increased vascular permeability caused by histamine; test: Increased vascular permeability caused by histamine, rat; format: in vivo; settings: 100 mg/kg, i.p.
Procedure: as §1

[5] = test system: increased vascular permeability induced by hyaluronidase; test: Increased vascular permeability induced by hyaluronidase, rat; format: in vivo; settings: 100 mg/kg, i.p.
Procedure: as §1

[6] = test system: bleeding from amputated tail tip; test: Hemostatic effect, bleeding from amputated tail tip (Motohashi et al.); format: in vivo, mice
[7] = test system: increased vascular permeability induced by lecithinase A; test: Increased vascular permeability induced by lecithinase A; format: in vivo, rabbits; settings: 100 mg/kg, i.p.
Procedure: as §1

[8] = test system: local hemorrhage induced by snake venom (Naja Naja cobra); test: Local hemorrhage induced by snake venom; format: in vivo, rats
Procedure: The inhibitory effect of SG and SGP on local hemorrhage induced by abdominal intracutaneous administration of snake venom (Naja Naja cobra) in rats was determined in terms of inhibiting rate against untreated control rats.

[9] = test system: bleeding from punctured ear vein; test: Inhibitory effect on bleeding from ear vein (Duke); format: in vivo, rabbits; settings: 10 mg/kg i.v., 3 hours after administration
Text: The hemostatic effect can also be observed by measuring the inhibitory effect on bleeding from ear vein in rabbits.

Arthus reaction = test: Arthus reaction, increased vascular permeability (Benacerral et al.); format: in vivo, guinea-pigs; settings: 100 mg/kg, i.p.; 5 hours after provocation
Procedure: Increased vascular permeability five hours after provocation of reaction is measured as the leakage of hemoglobin according to the method of Benacerral et al., J. Immunol.

[10] = test system: increased vascular permeability caused by histamine; test: Increased vascular permeability caused by histamine, rabbit; format: in vivo; settings: 100 mg/kg, i.p.
Procedure: as §1

[11] = test system: gastric mucosal hemorrhaging induced by electroshock; test: Gastric mucosal hemorrhage induced by electroshock (Danno et al.); format: in vivo, rats
[12] = test system: abdominal cutaneous vascular resistance; test: Abdominal cutaneous vascular resistance, petechia appearance under reduced pressure (Borbely et al.); format: in vivo, guinea-pigs; settings: 100 mg/kg, s.c.; reduced pressure 250 to 260 mm Hg
Text: The effect on abdominal cutaneous vascular resistance in guinea-pigs can also be used as a model of vascular stabilization. The time of appearance of petechia in abdominal skin of guinea-pigs under reduced pressure of 250 to 260 mm Hg is used as the index, with the petechia appearance delaying effect of each test compound in comparison with the control being determined according to the method of V. Borbely et al., Munch.

[13] = test system: increased vascular permeability induced by formalin; test: Increased vascular permeability induced by formalin; format: in vivo, rabbits; settings: 100 mg/kg, i.p.
Procedure: as §1

[14] = test system: passive systemic anaphylaxis; test: Passive systemic anaphylaxis lethality (Munoz et al.); format: in vivo, guinea-pigs
Procedure: The preventive effect against passive systemic anaphylaxis was determined according to the method of Munoz et al., J. Immunol., 80, 77 (1958). An antigen of 80% lethal dose is intravenously administered to antiserum-sensitized guinea-pigs, and the resultant passive systemic anaphylaxis lethality is expressed as the inhibition rate as compared with the control group.

## CC[C@H](/C=C/[C@@H](C)[C@H]1CC[C@H]2[C@@H]3CC=C4C[C@@H](O[C@@H]5O[C@H](CO)[C@@H](O)[C@H](O)[C@H]5O)CC[C@]4(C)[C@H]3CC[C@]12C)C(C)C [Stigmasteryl-β-D-glucoside]
[1]; summary table by compound
  ED50: 2.33 mg/kg

## CC[C@H](CC[C@@H](C)[C@H]1CC[C@H]2[C@@H]3CC=C4C[C@@H](O[C@@H]5O[C@H](CO)[C@@H](O)[C@H](O)[C@H]5O)CC[C@]4(C)[C@H]3CC[C@]12C)C(C)C [β-sitosteryl-β-D-glucoside]
[1]; summary table by compound
  ED50: 1.48 mg/kg

## CC(C)CCC[C@@H](C)[C@H]1CC[C@H]2[C@@H]3CC=C4C[C@@H](O[C@@H]5O[C@H](CO)[C@@H](O)[C@H](O)[C@H]5O)CC[C@]4(C)[C@H]3CC[C@]12C [Cholesteryl-β-D-glucoside]
[1]; summary table by compound
  ED50: 1.8 mg/kg

## CC(C)[C@H](C)CC[C@@H](C)[C@H]1CC[C@H]2[C@@H]3CC=C4C[C@@H](O[C@@H]5O[C@H](CO)[C@@H](O)[C@H](O)[C@H]5O)CC[C@]4(C)[C@H]3CC[C@]12C [Campesteryl-β-D-glucoside]
[1]
  ED50: 2.4 mg/kg

## CN1C2=CC(=O)/C(=N\NC(N)=O)C=C2CC1S(=O)(=O)[O-].[Na+] (centres unmarked) [Carbazochrome sodium sulfonate]
[2]
  % Inhibition (bleeding): 39.9%
[3]
  % Inhibition: 4.7%
Endotoxin shock; doses of less than 200 mg/kg
  effect on endotoxin shock: no niticeable effect
Endotoxin shock; i.p., endotoxin 80% lethal dose (8 mg/kg) i.v., 48 hours
  ED50 (endotoxin shock): > 200.0 mg/kg
Endotoxin shock; in vivo
  inhibitory effect against death from endotoxin-shock: far inferior in effect to SG and SGP
[4]
  % Inhibition: 32.7%
[5]
  % Inhibition: -4.5%
[6]; i.p.
  ED50 (hemostatic effect): 5.4 mg/kg
[6]; i.v.
  ED50 (hemostatic effect): 3.6 mg/kg
[6]; p.o.
  ED50 (hemostatic effect): 36.0 mg/kg
[7]
  % Inhibition: 10.8%
[8]; 100 mg/kg
  inhibitory effect against hemorrhagic action of snake venom: only slight effects
[8]; 100 mg/kg i.p.
  % Inhibition (local hemorrhage): 9.1%
[9]
  % Reduction (time of bleeding): 20.0%
Arthus reaction
  % Inhibition (Arthus reaction): 26.3%
[10]
  % Inhibition: 29.6%
[11]; dose of 200 mg/kg
  electroshock hemorrhage arresting effect: no noticeable effect
[11]; s.c., electroshock 100-200 V, 3 times/min., 24 hours
  ED50 (inhibiting gastric mucosal hemorrhage): > 200.0 mg/kg
[1]; i.p.
  ED50 (pulmonary hemorrhage): 112.0 mg/kg
[1]; i.v.
  ED50 (pulmonary hemorrhage): 80.0 mg/kg
[1]; p.o.
  ED50 (pulmonary hemorrhage): 400.0 mg/kg
[12]
  Prolongation Rate (test group/control group): 1.7
[13]
  % Inhibition: 0.4%
[14]; 100 mg/kg, i.p., antigen 80% lethal dose i.v.
  % Inhibition (PSA lethality): 20%
[14]; dose of 100 mg/kg
  effect on passive systemic anaphylaxis: only very slight effects
